One may read the IC50 as the concentration at which inhibition is half-maximal.

The test system of assay [1] is LNCaP. As to the kind of experiment: Antiproliferative activity against human LNCAP cells assessed as reduction in cell viability incubated for 24 hrs by MTT assay. In general terms: Tetrazolium assays rely on reduction of a dye to a coloured formazan, in cell work by metabolically active cells.
In assay [2] the test system is HT-1080. As to the kind of experiment: Antiproliferative activity against human HT-1080 cells assessed as reduction in cell viability. The class given is functional, cell-based.
The test system of assay [3] is A549. The assay is described as follows: Antiproliferative activity against human A549 cells assessed as reduction in cell growth. The class given is functional, cell-based.
A short description of assay [4]: Inhibition of NF-kappaB (unknown origin). Set-up: species or system Homo sapiens.
The test system of assay [5] is DU-145. As to the kind of experiment: Antiproliferative activity against human DU-145 cells assessed as reduction in cell viability incubated for 48 hrs by CCK8 assay. The class given is functional, cell-based. Conditions: DU-145, 48 h.
Assay [6] addresses S-phase kinase-associated protein 2 (Homo sapiens, UniProt Q13309). The assay is described as follows: Inhibition of SKP2 (unknown origin).
Assay [7] deals with PC-3. The assay is described as follows: Antitumor activity against human PC-3 cells xenografted in mouse assessed as tumor growth inhibition at 10 mg/kg, po administered once daily relative to control. The assay is classed as functional. Set-up: scale not given: the % may be the effect or the level left. A general note: A xenograft is tissue or cells of one species grown in another, often human tumour cells in immunodeficient mice.

The test system of assay [8] is NCI-H2170. As to the kind of experiment: Antiproliferative activity against human NCI-H2170 cells assessed as reduction in cell growth incubated for 72 hrs by CCK-8 assay. The assay is classed as functional, cell-based. Conditions: NCI-H2170, 72 h.
Assay [9] deals with NCI-H358. The assay is described as follows: Antiproliferative activity against human NCI-H358 cells assessed as reduction in cell growth incubated for 72 hrs by CCK-8 assay. The class given is functional, cell-based. The following applies: NCI-H358, 72 h.
Assay [10] relates to HGC-27. The assay is described as follows: Antiproliferative activity against human HGC-27 cells assessed as reduction in cell growth incubated for 24 hrs by CCK-8 assay. The class given is functional, cell-based. The following applies: HGC-27, 24 h.

SMILES strings stand for the structures.

Chain of S-phase kinase-associated protein 2 (Q13309 whole entry): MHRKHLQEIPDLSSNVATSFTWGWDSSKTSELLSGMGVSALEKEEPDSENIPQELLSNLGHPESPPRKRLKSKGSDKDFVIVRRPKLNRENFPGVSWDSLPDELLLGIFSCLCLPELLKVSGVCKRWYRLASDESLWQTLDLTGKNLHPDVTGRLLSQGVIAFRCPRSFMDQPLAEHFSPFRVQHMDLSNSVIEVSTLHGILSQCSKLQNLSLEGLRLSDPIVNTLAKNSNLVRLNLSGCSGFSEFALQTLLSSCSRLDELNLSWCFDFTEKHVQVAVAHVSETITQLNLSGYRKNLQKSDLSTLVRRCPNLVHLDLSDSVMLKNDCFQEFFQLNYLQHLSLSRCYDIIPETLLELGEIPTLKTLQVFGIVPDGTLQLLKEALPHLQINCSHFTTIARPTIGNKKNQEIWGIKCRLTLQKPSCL

`O=C(OCn1ncc(Cl)c(Cl)c1=O)c1cccc(C(F)(F)F)c1`: in [1], the IC50 came to 1.71 µM.
On to `Cc1ccc(S(=O)(=O)Nc2cc(Oc3cc(F)cc(F)c3)cc3cccnc23)cc1`, for which the 50% inhibitory concentration (IC50) in assay [2] worked out at 0.08 µM; in assay [3], 4.11 µM.
The matching figures for `COc1ccc(Oc2cc(NS(=O)(=O)c3ccc(C)cc3)c3ncccc3c2)cc1`: 0.74 µM and 4.09 µM.
The matching figures for `Cc1ccc(S(=O)(=O)Nc2cc(Oc3cccc(C#N)c3)cc3cccnc23)cc1`: 6.83 µM and 6.48 µM.
In assay [4], `O=C(O)c1ccc(N2N=C(Cc3ccccc3)/C(=C\c3ccc(-c4ccccc4F)o3)C2=O)cc1` gave an IC50 of 5.2 µM.
Consider `C/C=C/C(=O)c1c(OC)cc(=O)oc1C`, for which the 50% inhibitory concentration (IC50) in [5] worked out at 19.7 µM.
On to `O=C(CCl)NC1CCN(c2cnc(-c3ccccc3)c(-c3ccccc3)n2)CC1`, for which the IC50 in [6] was found to be 2.76 µM. Further, the Activity in [7] is 55.68%.
As for `CC(C)(C)c1cc2cc(NC(=O)c3cccs3)ccc2[nH]1`, the half-inhibitory concentration (IC50) in assay [1] was 4.63 µM.
Turning to `O=C(Nc1cc(F)cc(F)c1)Nc1cccc(COc2ccc(Cl)cc2Cl)c1`, the results for the half-inhibitory concentration (IC50) in [8] and in assay [9] were 5.55 µM and 6.4 µM, respectively.
The matching figures for `O=C(Nc1cc(F)cc(F)c1)Nc1cccc(COc2ncc(Cl)cn2)c1`: 5.6 µM and 5.85 µM.
The matching figures for `N#Cc1ccc(OCc2cccc(NC(=O)Nc3cc(F)cc(F)c3)c2)cc1`: 4.12 µM and 5.8 µM.
`O=C(Nc1cc(F)cc(F)c1)Nc1cccc(CNc2ccc(Cl)cc2)c1`: the IC50 in [8] came out at 7.31 µM; in assay [9] it was 6.97 µM.
In the case of `CCCCc1ccc(NC(C)=O)c(C)c1`, the half-inhibitory concentration (IC50) in [1] is 1.09 µM.
As for `CC(Oc1ccc(C#N)cc1)c1cccc(NC(=O)Nc2cc(F)cc(F)c2)c1` (configuration not stated), the IC50 in assay [8] was determined as 4.47 µM; in assay [9], 4.73 µM.
Turning to `CS(=O)(=O)c1ccc(CCC(=O)Nc2ccccn2)cc1`, in [1], the IC50 stood at 3.56 µM.
Turning to `COc1cc(C)ccc1-c1nc(C)c(NC(=O)OCc2ccc3c(c2)nc2n3CCOC2)s1`, in assay [2], the IC50 was 0.00175 µM.
On the same count and under the same terms, for `CCn1nnc2cc(COC(=O)Nc3sc(-c4ccc(C)cc4OC)nc3C)ccc21` the value was 0.00164 µM.
`O=C(Nc1cc(F)cc(F)c1)Nc1cccc(COc2ccccc2Cl)c1`: the IC50 worked out at 7.93 µM in assay [8] and 8.1 µM in [9].
The matching figures for `O=C(Nc1cc(F)cc(F)c1)Nc1cccc(COc2ccc(Cl)cc2)c1`: 3.19 µM and 7.9 µM.
For `CCOc1nc2cccc(C(=O)OCc3oc(=O)oc3C)c2n1Cc1ccc(-c2ccccc2-c2noc(=O)[nH]2)cc1` [AZILSARTAN MEDOXOMIL], the values for the half-inhibitory concentration (IC50) in assay [5] and in [10] were 50 µM and 0.399 µM, respectively.

The values above are taken from ChEMBL document CHEMBL6071154, “A patent review of SCF E3 ligases inhibitors for cancer:Structural design, pharmacological activities and structure-activity relationship” (Eur J Med Chem, 2024).
